# Laboratory results: US7364900B2, “Multi-lineage directed induction of bone marrow stromal cell differentiation” (University of Medicine and Dentistry of New Jersey, priority 2001, dated 2008)
# Tested on: rMSCs
# Assay: Induction of nestin-positive endodermal/neuronal precursor cells from marrow stromal cells
# Type: cell-based, rat
# Details: sub-confluent rMSCs, pre-induction media supplemented with 1 mM BME, 24 hours
# Method: Rat MSCs are originally cultured in alpha-Modified Eagle's Medium (alpha-MEM) supplemented with 20% FBS, 2 mM L-glutamine, 100 units per milliliter penicillin, 100 […] streptomycin and 25 nanograms per milliliter amphotericin B. For each passage the cells are plated at about 8,000 cells per square centimeter and grown to confluency. At passage 6 the cells are transferred to DMEM (pH 8.0)/20% FBS without additional supplementation, and maintained beyond passage 14. Subconfluent cultures of rat and human MSCs are maintained in DMEM/20% FBS.
# Twenty-four hours before induction of partial differentiation to nestin-positive precursor cells, medium is replaced with a pre-induction medium consisting of DMEM, 20% FBS and 1 millimolar β-mercaptoethanol. The cells are then transferred to a serum free endodermal/neuronal precursor induction medium composed of DMEM and 1-10 millimolar β-mercaptoethanol. […] To effect further differentiation to pancreatic islet cell phenotype, the partially differentiated nestin-positive endodermal/neuronal precursor cells are transferred to serum-free DMEM containing 1-10 mM β-mercaptoethanol with and without 10 nanograms/ml basic fibroblast growth factor (bFGF).
# rMSCs are initially maintained in sub-confluent cultures in pre-induction media supplemented with 1 mM beta-mercaptoethanol (BME) for 24 hours. […]
smiles,measurement,value
"OCCS [BME, beta-mercaptoethanol]",changes in morphology,no changes in morphology are evident
